Test results as given in patent EP4610269A1, “UROKINASE PLASMINOGEN ACTIVATOR SURFACE RECEPTOR (UPAR) LIGANDS FOR DIAGNOSTIC OR THERAPEUTIC USE” (3B Pharmaceuticals GmbH, priority 2024, dated 2025).
Read-outs that look alike come from different tables or passages of the source. Where a SMILES comes first, the peptide text is derived from it. Bridges are numbered along the chain shown (N, C = ends). [ ]: non-standard residue; d: D form. The star is where a group is joined. DOTA = O=C(O)CN1CCN(CC(=O)O)CCN(CC(=O)*)CCN(CC(=O)O)CC1; Pro(cis-4-F) = O=C(O)[C@@H]1C[C@H](F)CN1; Hyp = O=C(O)[C@@H]1C[C@@H](O)CN1; NMeI = CC[C@H](C)[C@H](NC)C(=O)O; 3Pal = N[C@@H](Cc1cccnc1)C(=O)O; Pentanoyl(4-Me) = CC(C)CCC(=O)*; Cha = N[C@@H](CC1CCCCC1)C(=O)O; Cit = NC(=O)NCCC[C@H](N)C(=O)O; Butoxycarbonyl = CCCCOC(=O)*; Nva = CCC[C@H](N)C(=O)O; Pentanoyl = CCCCC(=O)*; βAla = NCCC(=O)O

What was measured:
human uPAR (uPAR-Fc) = target: T1, human uPAR (uPAR-Fc) (Homo sapiens, UniProt Q03405); assay: Surface plasmon resonance (SPR) assay, single cycle kinetics; type: binding; conditions: pKD category for uPAR SPR activity assay, uPAR-Fc on Protein A-Chip, 25°C, read-out: pKD CAT (converted)
T1 construct: comprising amino acids Leu23-Arg303 according to UniProt entry Q03405.1; purchased R&D Systems 10378-UK-100
Procedure, shortened: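 uPAR-Fc (Leu23-Arg303 extracellular domains, human IgG1 Fc) captured on Protein A chip to ~2000 RU; single-cycle kinetics at 25°C in HEPES running buffer pH 7.4 with 0.1% DMSO. KD from double-referenced sensorgrams fitted to 1:1 Langmuir model, reported as pKD.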

[1] = target: T2, uPAR-expressing HEC-265 human endometrial adenocarcinoma cells (Homo sapiens, UniProt Q03405); assay: Competitive FACS binding assay; conditions: pIC50 category of FACS binding
T2 construct: Cell surface uPAR-expressing HEC-265 human endometrial adenocarcinoma cells; host or cells: HEC-265
Procedure, shortened: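 HEC-265 cells incubated 1 h at 4 °C with 10 nM biotinylated uPAR peptide tracer plus increasing test compound, then stained with APC-streptavidin on ice. Median APC fluorescence by flow cytometry; 4PL fit gives pIC50.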

T2 sequence (Q03405 23-335): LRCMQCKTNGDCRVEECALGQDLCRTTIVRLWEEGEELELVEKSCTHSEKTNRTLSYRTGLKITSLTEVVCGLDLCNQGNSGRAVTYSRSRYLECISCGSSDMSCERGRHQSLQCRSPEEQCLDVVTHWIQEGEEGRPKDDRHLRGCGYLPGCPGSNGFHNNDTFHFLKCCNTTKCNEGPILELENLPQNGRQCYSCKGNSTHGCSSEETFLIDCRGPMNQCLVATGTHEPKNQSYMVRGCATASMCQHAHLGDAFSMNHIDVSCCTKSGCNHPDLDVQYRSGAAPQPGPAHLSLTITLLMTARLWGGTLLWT
T1 sequence (Q03405 23-303): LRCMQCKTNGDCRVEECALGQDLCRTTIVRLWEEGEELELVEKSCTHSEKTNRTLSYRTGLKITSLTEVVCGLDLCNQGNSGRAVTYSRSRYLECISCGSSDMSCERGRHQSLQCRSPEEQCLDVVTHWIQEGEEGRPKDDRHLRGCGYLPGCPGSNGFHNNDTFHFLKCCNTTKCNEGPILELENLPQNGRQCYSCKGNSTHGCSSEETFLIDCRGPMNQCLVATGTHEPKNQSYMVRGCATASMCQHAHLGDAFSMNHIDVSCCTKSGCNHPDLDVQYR

Kd (human uPAR (uPAR-Fc)) | IC50 [1] | Kd (human uPAR (uPAR-Fc); single cycle kinetics) | Structure (SMILES)
< 1.58 nM | ≤ 10 nM | – | CC[C@H](C)[C@@H]1NC(=O)[C@H](C)NC(=O)[C@@H]2CCCN2C(=O)[C@H](Cc2ccccc2)NC(=O)[C@H](Cc2ccc(O)cc2)NC(=O)[C@H](CCSC)NC(=O)[C@H](CCCNC(=N)N)NC(=O)[C@@H](NC(=O)[C@H](CC(C)C)NC(=O)[C@H](CC(=O)O)NC(C)=O)CSSC[C@@H](C(N)=O)NC(=O)[C@H](CC(C)C)NC1=O [UPAR-341, Ac-Asp-Leu-[Cys-Arg-Met-Tyr-Phe-Pro-Ala-Ile-Leu-Cys]-NH2] (Ac-DLCRMYFPAILC-NH2; disulfide 3-12)
– | ≤ 10 nM | < 1.58 nM | CCCCC(=O)N[C@H]1CSSC[C@@H](C(N)=O)NC(=O)[C@H](CCC)NC(=O)[C@H]([C@@H](C)CC)NC(=O)[C@@H]2C[C@@H](O)CN2C(=O)[C@@H]2CCCN2C(=O)[C@H](Cc2ccccc2)NC(=O)[C@H](CC2CCCCC2)NC(=O)[C@H](CCC(N)=O)NC(=O)[C@H](CCCNC(=N)N)NC1=O [UPAR-373, Pent-[Cys-Arg-Gln-Cha-Phe-Pro-Hyp-Ile-Nva-Cys]-NH2] (Pentanoyl-CRQ[Cha]FP[Hyp]I[Nva]C-NH2; disulfide 1-10)
10 to 100 nM | ≥ 126 nM | – | CC[C@H](C)[C@H]1C(=O)N[C@@H](CC(C)C)C(=O)N[C@H](C(N)=O)CSSC[C@H](NC(=O)CCC(C)C)C(=O)N[C@@H](CCCNC(N)=O)C(=O)N[C@@H](CCC(N)=O)C(=O)N[C@@H](Cc2ccc(O)cc2)C(=O)N[C@@H](Cc2ccccc2)C(=O)N2CCC[C@H]2C(=O)N[C@H](C)C(=O)N1C [UPAR-340, iHex-[Cys-Cit-Gln-Tyr-Phe-Pro-ala-Nmi-Leu-Cys]-NH2] ({Pentanoyl(4-Me)}-C[Cit]QYFP[dA][NMeI]LC-NH2; disulfide 1-10)
> 100 nM | ≥ 126 nM | – | CC[C@H](C)[C@@H]1NC(=O)[C@@H](C)NC(=O)[C@@H]2CCCN2C(=O)[C@H](C)NC(=O)[C@H](Cc2ccc(O)cc2)NC(=O)[C@H](CCC(N)=O)NC(=O)[C@H](CCCNC(N)=O)NC(=O)[C@@H](NC(=O)CCC(C)C)CSSC[C@@H](C(N)=O)NC(=O)[C@H](CC(C)C)NC1=O [UPAR-263, iHex-[Cys-Cit-Gln-Tyr-Ala-Pro-ala-Ile-Leu-Cys]-NH2] ({Pentanoyl(4-Me)}-C[Cit]QYAP[dA]ILC-NH2; disulfide 1-10)
– | 12.6 to 31.6 nM | 1.58 to 10 nM | CCCCC(=O)N[C@H]1CSSC[C@@H](C(=O)NCCC(N)=O)NC(=O)[C@H](CCC)NC(=O)[C@H]([C@@H](C)CC)NC(=O)[C@@H]2C[C@@H](O)CN2C(=O)[C@@H]2CCCN2C(=O)[C@H](Cc2ccccc2)NC(=O)[C@H](Cc2ccc(O)cc2)NC(=O)[C@H](CCC(N)=O)NC(=O)[C@H](CCCNC(N)=O)NC1=O [UPAR-353, Pent-[Cys-Cit-Gln-Tyr-Phe-Pro-Hyp-Ile-Nva-Cys]-Bal-NH2] (Pentanoyl-C[Cit]QYFP[Hyp]I[Nva]C[βAla]-NH2; disulfide 1-10)
– | ≤ 10 nM | < 1.58 nM | CC[C@H](C)[C@@H]1NC(=O)[C@@H](C)NC(=O)[C@@H]2CCCN2C(=O)[C@H](Cc2ccccc2)NC(=O)[C@H](Cc2ccc(O)cc2)NC(=O)[C@H](CCCCNC(C)=O)NC(=O)[C@H](CCCNC(N)=O)NC(=O)[C@@H](NC(=O)CCC(C)C)CSSC[C@@H](C(N)=O)NC(=O)[C@H](CC(C)C)NC1=O [UPAR-413, iHex-[Cys-Cit-Lys(Ac)-Tyr-Phe-Pro-ala-Ile-Leu-Cys]-NH2] ({Pentanoyl(4-Me)}-C[Cit]K(Ac)YFP[dA]ILC-NH2; disulfide 1-10)

Structure (SMILES) | Kd (human uPAR (uPAR-Fc)) | IC50 [1] | Kd (human uPAR (uPAR-Fc); single cycle kinetics)
CCCCOC(=O)N[C@H]1CSSC[C@@H](C(N)=O)NC(=O)[C@H](CCC)NC(=O)[C@H]([C@@H](C)CC)NC(=O)[C@@H]2C[C@@H](O)CN2C(=O)[C@@H]2C[C@H](F)CN2C(=O)[C@H](Cc2ccccc2)NC(=O)[C@H](Cc2cccnc2)NC(=O)[C@H](CCCCNC(=O)CN2CCN(CC(=O)O)CCN(CC(=O)O)CCN(CC(=O)O)CC2)NC(=O)[C@H]([C@@H](C)O)NC1=O [UPAR-165, Butoc-[Cys-Thr-Lys(DOTA)-Mpa-Phe-4Cfp-Hyp-Ile-Nva-Cys]-NH2] (Butoxycarbonyl-CTK(DOTA)[3Pal]F[Pro(cis-4-F)][Hyp]I[Nva]C-NH2; disulfide 1-10) | < 1.58 nM | ≤ 10 nM | –
